Measured values published in the supplement of paper PMC11451515.

Tested on: P12-Ichikawa
Test: cell viability relative to DMSO control; higher = less cytotoxic
Conditions: 48 h
Method in brief: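 Viability values are per-plate percentages of DMSO wells, with background from cell-free wells. Library compounds in DMSO were pin-dosed, in an 11-point threefold series from 47 μM to 0.79 nM, onto NOMO1 or SEM (500 cells/well) or P12-Ichikawa (1000 cells/well) leukemia cells in 1536-well plates (5 μl). Those cells had been adapted for at least four passages in each medium, and CellTiter-Glo One luminescence was read after 48 h at 37°C.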

[1] = HPLM + 10% dialyzed FBS, 0.000781 µM
[2] = HPLM + 10% dialyzed FBS, 0.00234 µM
[3] = HPLM + 10% dialyzed FBS, 0.00702 µM
[4] = HPLM + 10% dialyzed FBS, 0.0211 µM
[5] = HPLM + 10% dialyzed FBS, 0.0632 µM
[6] = HPLM + 10% dialyzed FBS, 0.19 µM
[7] = HPLM + 10% dialyzed FBS, 0.569 µM
[8] = HPLM + 10% dialyzed FBS, 1.71 µM
[9] = HPLM + 10% dialyzed FBS, 5.12 µM
[10] = HPLM + 10% dialyzed FBS, 15.4 µM
[11] = HPLM + 10% dialyzed FBS, 46.1 µM
[12] = RPMI 5 mM glucose + 10% FBS, 0.000781 µM
[13] = RPMI 5 mM glucose + 10% FBS, 0.00234 µM
[14] = RPMI 5 mM glucose + 10% FBS, 0.00702 µM
[15] = RPMI 5 mM glucose + 10% FBS, 0.0211 µM
[16] = RPMI 5 mM glucose + 10% FBS, 0.0632 µM
[17] = RPMI 5 mM glucose + 10% FBS, 0.19 µM
[18] = RPMI 5 mM glucose + 10% FBS, 0.569 µM
[19] = RPMI 5 mM glucose + 10% FBS, 1.71 µM
[20] = RPMI 5 mM glucose + 10% FBS, 5.12 µM
[21] = RPMI 5 mM glucose + 10% FBS, 15.4 µM
[22] = RPMI 5 mM glucose + 10% FBS, 46.1 µM
[23] = RPMI 5 mM glucose + 10% dialyzed FBS, 0.000781 µM
[24] = RPMI 5 mM glucose + 10% dialyzed FBS, 0.00234 µM
[25] = RPMI 5 mM glucose + 10% dialyzed FBS, 0.00702 µM
[26] = RPMI 5 mM glucose + 10% dialyzed FBS, 0.0211 µM
[27] = RPMI 5 mM glucose + 10% dialyzed FBS, 0.0632 µM
[28] = RPMI 5 mM glucose + 10% dialyzed FBS, 0.19 µM
[29] = RPMI 5 mM glucose + 10% dialyzed FBS, 0.569 µM
[30] = RPMI 5 mM glucose + 10% dialyzed FBS, 1.71 µM
[31] = RPMI 5 mM glucose + 10% dialyzed FBS, 5.12 µM
[32] = RPMI 5 mM glucose + 10% dialyzed FBS, 15.4 µM
[33] = RPMI 5 mM glucose + 10% dialyzed FBS, 46.1 µM

Row | Compound | cell viability [1] [%] | cell viability [2] [%] | cell viability [3] [%] | cell viability [4] [%] | cell viability [5] [%] | cell viability [6] [%] | cell viability [7] [%] | cell viability [8] [%] | cell viability [9] [%] | cell viability [10] [%] | cell viability [11] [%] | cell viability [12] [%] | cell viability [13] [%] | cell viability [14] [%] | cell viability [15] [%] | cell viability [16] [%] | cell viability [17] [%] | cell viability [18] [%] | cell viability [19] [%] | cell viability [20] [%] | cell viability [21] [%] | cell viability [22] [%] | cell viability [23] [%] | cell viability [24] [%] | cell viability [25] [%] | cell viability [26] [%] | cell viability [27] [%] | cell viability [28] [%] | cell viability [29] [%] | cell viability [30] [%] | cell viability [31] [%] | cell viability [32] [%] | cell viability [33] [%]
1 | CCOc1cc2c(c(F)c1OCC)C(=N)N(CC(=O)c1cc(N3CCOCC3)c(OC)c(C(C)(C)C)c1)C2 | 104 | 105 | 107 | 114 | 112 | 111 | 115 | 115 | 116 | 118 | 100 | 110 | 124 | 128 | 118 | 126 | 132 | 128 | 127 | 124 | 131 | 108 | 108 | 114 | 111 | 118 | 125 | 117 | 119 | 117 | 113 | 120 | 105
2 | Clc1ccc(COC(Cn2ccnc2)c2ccc(Cl)cc2Cl)cc1 (stereo not given) | 110 | 109 | 115 | 117 | 124 | 121 | 120 | 117 | 114 | 116 | 106 | 116 | 117 | 114 | 126 | 129 | 123 | 121 | 130 | 126 | 104 | 91.3 | 108 | 114 | 123 | 113 | 124 | 124 | 120 | 107 | 103 | 96.8 | 85.7
3 | CCc1cc(/C(C)=N/OCc2ccc(C3CCCCC3)c(C(F)(F)F)c2)ccc1CN1CC(C(=O)O)C1 | 111 | 110 | 112 | 119 | 120 | 114 | 121 | 108 | 105 | 30.3 | 18.9 | 109 | 99 | 105 | 108 | 110 | 106 | 108 | 107 | 94.4 | 22.5 | 18.7 | 111 | 111 | 116 | 109 | 109 | 116 | 114 | 106 | 100 | 20.7 | 18.6
4 | CC(C)(Cc1ccc2ccccc2c1)NC[C@@H](O)COc1cccc(Cl)c1C#N | 123 | 124 | 126 | 122 | 121 | 120 | 123 | 116 | 123 | 117 | 10.7 | – | – | – | – | – | – | – | – | – | – | – | – | – | – | – | – | – | – | – | – | – | –
